Measurements published in patent publication US7531529B2, “Imidazole derivatives” (Roche Palo Alto LLC, priority 2003, dated 2009).

Molecular target: T1, human mGlu5a receptor (Homo sapiens, UniProt P41594)
T1 construct: expressed in transfected cells; host or cells: EBNA cells (transient transfection); cell membrane homogenates
Experiment: [3H]MPEP competition binding on membranes of EBNA cells transfected with human mGlu5a receptor
Method: For binding experiments, cDNA encoding human mGlu5a receptor was transiently transfected into EBNA cells using a procedure described by Schlaeger and Christensen [Cytotechnology 15:1-13 (1998)]. Cell membrane homogenates were stored at −80° C. until the day of assay where upon they were thawed and resuspended and polytronised in 15 mM Tris-HCl, 120 mM NaCl, 100 mM KCl, 25 mM CaCl2, 25 mM MgCl2 binding buffer at pH 7.4 to a final assay concentration of 20 μg protein/ well.
Saturation isotherms were determined by addition of twelve [^3H]MPEP concentrations (0.04-100 nM) to these membranes (in a total volume of 200 μl) for 1 h at 4° C. Competition experiments were performed with a fixed concentration of [^3H]MPEP (2 nM) and IC50 values of test compounds evaluated using 11 concentrations (0.3-10,000 nM). Incubations were performed for 1 h at 4° C.
At the end of the incubation, membranes were filtered onto unifilter (96-well white microplate with bonded GF/C filter preincubated 1 h in 0.1% PEI in wash buffer, Packard BioScience, Meriden, Conn.) with a Filtermate 96 harvester (Packard BioScience) and washed 3 times with cold 50 mM Tris-HCl, pH 7.4 buffer. Nonspecific binding was measured in the presence of 10 μM MPEP. The radioactivity on the filter was counted (3 min) on a Packard Top-count microplate scintillation counter with quenching correction after addition of 45 μl of microscint 40 (Canberra Packard S.A., Zürich, Switzerland) and shaking for 20 min.
The Ki value is defined by the following formula: Ki=IC50/[1+L/Kd] in which the IC50 values are those concentrations of the compounds tested which cause 50% inhibition of the competing radioligand ([^3H]MPEP). L is the concentration of radioligand used in the binding experiment and the Kd value of the radioligand is empirically determined for each batch of membranes prepared.

T1 sequence (P41594 21-1180 isoform P41594-2 limits assumed): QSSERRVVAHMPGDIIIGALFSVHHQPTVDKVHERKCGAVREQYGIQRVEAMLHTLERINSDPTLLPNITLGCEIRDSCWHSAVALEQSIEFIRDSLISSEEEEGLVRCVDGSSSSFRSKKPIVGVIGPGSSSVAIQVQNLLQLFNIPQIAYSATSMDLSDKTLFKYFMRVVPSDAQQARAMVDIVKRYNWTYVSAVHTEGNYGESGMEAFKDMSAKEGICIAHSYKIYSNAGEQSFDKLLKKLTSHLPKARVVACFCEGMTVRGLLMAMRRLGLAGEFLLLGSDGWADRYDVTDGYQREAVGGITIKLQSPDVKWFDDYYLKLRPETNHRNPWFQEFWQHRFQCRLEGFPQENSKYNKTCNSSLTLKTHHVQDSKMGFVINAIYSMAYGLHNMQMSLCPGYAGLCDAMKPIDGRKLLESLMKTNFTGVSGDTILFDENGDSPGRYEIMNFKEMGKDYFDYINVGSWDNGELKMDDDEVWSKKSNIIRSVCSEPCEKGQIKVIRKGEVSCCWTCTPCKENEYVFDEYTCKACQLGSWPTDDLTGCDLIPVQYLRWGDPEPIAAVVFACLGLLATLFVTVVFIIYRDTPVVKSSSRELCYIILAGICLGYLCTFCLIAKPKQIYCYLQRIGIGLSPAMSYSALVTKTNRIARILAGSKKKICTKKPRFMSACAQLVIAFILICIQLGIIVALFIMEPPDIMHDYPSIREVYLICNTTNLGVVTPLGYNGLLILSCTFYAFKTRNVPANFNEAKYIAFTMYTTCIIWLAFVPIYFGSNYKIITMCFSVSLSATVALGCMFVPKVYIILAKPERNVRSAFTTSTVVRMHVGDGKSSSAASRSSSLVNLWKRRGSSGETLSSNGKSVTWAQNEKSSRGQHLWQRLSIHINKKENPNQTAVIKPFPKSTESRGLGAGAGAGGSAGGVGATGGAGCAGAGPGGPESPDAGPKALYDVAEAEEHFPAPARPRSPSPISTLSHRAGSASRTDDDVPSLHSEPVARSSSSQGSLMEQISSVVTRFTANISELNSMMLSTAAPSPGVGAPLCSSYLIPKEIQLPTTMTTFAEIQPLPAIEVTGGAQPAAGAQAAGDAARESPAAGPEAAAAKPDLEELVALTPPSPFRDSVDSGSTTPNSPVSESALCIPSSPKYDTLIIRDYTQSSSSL

Structure (SMILES)	Ki
Cc1nc(C#Cc2ccnc(F)c2)cn1-c1ccc(F)cc1 [Example 2, 2-Fluoro-4-[1-(4-fluoro-phenyl)-2-methyl-1H-imidazol-4-ylethynyl]-pyridine]	23 nM
Cc1nc(C#Cc2ccnc(Cl)c2)cn1-c1ccc(C2CC2)nc1 [Example 33, 5-[4-(2-Chloro-pyridin-4-ylethynyl)-2-methyl-imidazol-1-yl]-2-cyclopropyl-pyridine]	24 nM
Cc1ccc(-n2cc(C#Cc3ccnc(Cl)c3)nc2C)nc1 [Example 30, 2-[4-(2-Chloro-pyridin-4-ylethynyl)-2-methyl-imidazol-1-yl]-5-methyl-pyridine]	36 nM
Cc1nc(C#Cc2ccnc(Cl)c2)cn1-c1ccc(Cl)c(Cl)c1 [Example 8, 2-Chloro-4-[1-(3,4-dichloro-phenyl)-2-methyl-1H-imidazol-4-ylethynyl]-pyridine]	24 nM
Cc1ccnc(-n2cc(C#Cc3ccnc(Cl)c3)nc2C)n1 [Example 25, 2-[4-(2-Chloro-pyridin-4-ylethynyl)-2-methyl-imidazol-1-yl]-4-methyl-pyrimidine]	40 nM
Cc1nc(C#Cc2ccnc(Cl)c2)cn1-c1ccnc(C(F)(F)F)n1 [Example 28, 4-[4-(2-Chloro-pyridin-4-ylethynyl)-2-methyl-imidazol-1-yl]-2-trifluoromethyl-pyrimidine]	23 nM
COc1ccnc(-n2cc(C#Cc3ccnc(Cl)c3)nc2C)n1 [Example 26, 2-[4-(2-Chloro-pyridin-4-ylethynyl)-2-methyl-imidazol-1-yl]-4-methoxy-pyrimidine]	12 nM
Cc1nc(C#Cc2ccnc(C#N)c2)cn1-c1ccc(F)cc1 [Example 10, 4-[1-(4-Fluoro-phenyl)-2-methyl-1H-imidazol-4-ylethynyl]-pyridine-2-carbonitrile]	44 nM
Cc1ccc(-n2cc(C#Cc3ccnc(Cl)c3)nc2C)cc1 [Example 20, 2-Chloro-4-[1-(4-methyl-phenyl)-2-methyl-1H-imidazol-4-ylethynyl]-pyridine]	15 nM
Cc1nc(C#Cc2ccnc(Cl)c2)cn1-c1cncc(F)c1 [Example 6, 3-[4-(2-Chloro-pyridin-4-ylethynyl)-2-methyl-imidazol-1-yl]-5-fluoro-pyridine]	63 nM
COc1ccc(-n2cc(C#Cc3ccnc(Cl)c3)nc2C)cc1 [Example 22, 2-Chloro-4-[1-(4-methoxy-phenyl)-2-methyl-1H-imidazol-4-ylethynyl]-pyridine]	26 nM
Cc1nc(C#Cc2ccnc(Cl)c2)cn1-c1cccc(C(F)(F)F)n1 [Example 5, 2-[4-(2-Chloro-pyridin-4-ylethynyl)-2-methyl-imidazol-1-yl]-6-trifluoromethyl-pyridine]	21 nM
Cc1cc(-n2cc(C#Cc3ccnc(Cl)c3)nc2C)ccc1F [Example 18, 2-Chloro-4-[1-(4-fluoro-3-methyl-phenyl)-2-methyl-1H-imidazol-4-ylethynyl]-pyridine]	25 nM
Cc1nc(C#Cc2ccnc(C#N)c2)cn1-c1ccc(Cl)nc1 [Example 31, 4-[1-(6-Chloro-pyridin-3-yl)-2-methyl-1H-imidazol-4-ylethynyl]-pyridine-2-carbonitrile]	69 nM
